Assay results as given in patent US20240287138A1, “CYCLIC PEPTIDES FOR INHIBITING TNF RECEPTOR 1 ACTIVITY” (Merck Sharp & Dohme LLC, priority 2023, published 2024).
Numbered stars: 1 amine (or outer) side, 2 acyl side, 3 side chain; on linkers, the order of the positions; unused ones are H or OH. Bridge positions count the residues as written; N and C are the ends. Square brackets hold non-standard residues; d marks the D form. Peptide text beside a SMILES is read from it. * marks the point of attachment. Trp(βS-Me,7-OMe) = COc1cccc2c([C@H](C)[C@H](N)C(=O)O)c[nH]c12; Phe(4-SO2NH2) = N[C@@H](Cc1ccc(S(N)(=O)=O)cc1)C(=O)O; Phe(2-F,4-COOH) = N[C@@H](Cc1ccc(C(=O)O)cc1F)C(=O)O; Trp(7-CN) = N#Cc1cccc2c(C[C@H](N)C(=O)O)c[nH]c12; Trp(7-Cl) = N[C@@H](Cc1c[nH]c2c(Cl)cccc12)C(=O)O; Phe(4-CONH2) = NC(=O)c1ccc(C[C@H](N)C(=O)O)cc1; Phe(4-COOH) = N[C@@H](Cc1ccc(C(=O)O)cc1)C(=O)O; Trp(7-aza) = N[C@@H](Cc1c[nH]c2ncccc12)C(=O)O; X3 = C[C@H](c1ccncc1)[C@H](N[*:1])C(=O)[*:2]; dPro(4S-NH2) = N[C@@H]1CN[C@@H](C(=O)O)C1; Pip(5R-OH) = O=C(O)[C@@H]1CC[C@@H](O)CN1; X1 = O=C([C@@H]1CC[C@H](N[*:1])C1)[*:2]; Gly(Nα-CH2CH2CONH2) = NC(=O)CCNCC(=O)O; Pip(4-aza) = O=C(O)[C@@H]1CNCCN1; 4Pal = N[C@@H](Cc1ccncc1)C(=O)O; NMeE = CN[C@@H](CCC(=O)O)C(=O)O; dHyp = O=C(O)[C@H]1C[C@H](O)CN1; Ahp(2) = CCCCC[C@H](N)C(=O)O; αMeS = C[C@](N)(CO)C(=O)O; Carboxymethyl = O=C(O)C*; Nle = CCCC[C@H](N)C(=O)O; Sar = CNCC(=O)O

How the values were obtained:
[1] = target: T1, human soluble TNFR1 (sTNFR1) (Homo sapiens, UniProt P19438); assay: Human sTNFR1-peptide displacement assay (LanthaScreen Eu TR-FRET binding assay)
T1 construct: made in house; host or cells: Sf21 (baculovirus)
T1 sequence (P19438 with tags, fused parts or gaps): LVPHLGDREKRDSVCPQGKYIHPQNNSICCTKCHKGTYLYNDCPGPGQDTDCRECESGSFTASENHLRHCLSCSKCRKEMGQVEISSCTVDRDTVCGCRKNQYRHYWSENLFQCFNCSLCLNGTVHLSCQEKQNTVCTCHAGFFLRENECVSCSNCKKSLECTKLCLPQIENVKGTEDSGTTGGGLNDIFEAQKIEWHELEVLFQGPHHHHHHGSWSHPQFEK
How it was run: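 Readout is the 665/615 nm TR-FRET ratio (Eu anti-His donor, streptavidin-Alexa647 acceptor), normalized to DMSO and saturating displacer, fit by Morrison-based five-parameter logistic for Kd^app. His-tagged sTNFR1 (1-211) prebound to 100 nM biotinylated peptide SEQ ID NO.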

human TNFR2 ECD protein = target: T2, human TNFR2 ECD protein (Homo sapiens, UniProt P20333); assay: SPR off-target binding (selectivity) to human TNFR2 ECD
T2 construct: HRV 3C protease cleavage site (C); 6His (C, cleaved yes); made in house; host or cells: Sf21 insect cells (baculovirus), secreted
T2 sequence (P20333 23-257): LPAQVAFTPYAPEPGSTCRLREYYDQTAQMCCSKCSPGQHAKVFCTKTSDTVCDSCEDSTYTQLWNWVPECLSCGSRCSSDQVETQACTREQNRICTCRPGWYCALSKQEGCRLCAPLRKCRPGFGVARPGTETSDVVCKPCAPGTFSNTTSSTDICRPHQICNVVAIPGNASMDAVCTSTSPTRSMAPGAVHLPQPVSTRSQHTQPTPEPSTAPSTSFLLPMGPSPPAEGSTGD
How it was run: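 Read-out: kon, koff and derived affinity from SPR response units. Human TNFR1 and TNFR2 ECD, Avi-tag biotinylated with BirA, captured on a streptavidin surface; peptides injected under laminar flow in HEPES-saline with EDTA, P20 and 2% DMSO.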

SMILES	Kd [1]	Kd (human TNFR2 ECD protein)	IC50 [1]
CCCC[C@@H]1NC(=O)[C@@H]2CC[C@@H](C2)NC(=O)[C@H]([C@@H](C)c2c[nH]c3c(OC)cccc23)NC(=O)CN(C)C(=O)[C@H](Cc2ccc(C(=O)O)cc2)NC(=O)[C@H](Cc2ccc(C(N)=O)cc2)NC(=O)[C@](C)(CO)NC(=O)[C@H](Cc2c[nH]c3c(C#N)cccc23)NC(=O)[C@H](Cc2ccc(C(=O)O)cc2)NC(=O)[C@H](CC(N)=O)NC(=O)CN(CCC(N)=O)C(=O)[C@H](Cc2c[nH]c3ccccc23)NC(=O)[C@@H]2CC[C@@H](O)CN2C(=O)[C@H](Cc2ccncc2)NC1=O [SEQ ID NO. 130] (cyclo([4Pal][Pip(5R-OH)]W[Gly(Nα-CH2CH2CONH2)]N[Phe(4-COOH)][Trp(7-CN)][αMeS][Phe(4-CONH2)][Phe(4-COOH)][Sar][Trp(βS-Me,7-OMe)][X1][Nle]))	0.01 nM	> 1000 nM	
CCCC[C@@H]1NC(=O)[C@@H]2CC[C@@H](C2)NC(=O)[C@H]([C@@H](C)c2c[nH]c3c(OC)cccc23)NC(=O)CN(C)C(=O)[C@H](Cc2ccc(C(=O)O)cc2F)NC(=O)[C@H](Cc2ccc(S(N)(=O)=O)cc2)NC(=O)[C@](C)(CO)NC(=O)[C@H](Cc2c[nH]c3c(C#N)cccc23)NC(=O)[C@H](Cc2ccc(C(=O)O)cc2F)NC(=O)[C@H](CC(N)=O)NC(=O)[C@H]2C[C@H](OCC(=O)O)CN2C(=O)[C@H](Cc2c[nH]c3ncccc23)NC(=O)[C@@H]2CC[C@@H](O)CN2C(=O)[C@H](Cc2ccncc2)NC1=O [SEQ ID NO. 134] (cyclo([4Pal][Pip(5R-OH)][Trp(7-aza)][dHyp](Carboxymethyl)N[Phe(2-F,4-COOH)][Trp(7-CN)][αMeS][Phe(4-SO2NH2)][Phe(2-F,4-COOH)][Sar][Trp(βS-Me,7-OMe)][X1][Nle]))	0.06 nM	> 1000 nM	
CCCCC[C@@H]1NC(=O)[C@@H]2CC[C@@H](C2)NC(=O)[C@H]([C@@H](C)c2c[nH]c3c(OC)cccc23)NC(=O)CN(C)C(=O)[C@H](Cc2ccc(C(N)=O)cc2)NC(=O)[C@H](Cc2ccc(C(N)=O)cc2)NC(=O)[C@](C)(CO)NC(=O)[C@H](Cc2c[nH]c3c(C#N)cccc23)NC(=O)[C@H](Cc2ccc(C(=O)O)cc2)NC(=O)[C@H](CC(N)=O)NC(=O)[C@H]2C[C@H](OCC(=O)O)CN2C(=O)[C@H](Cc2c[nH]c3ccccc23)NC(=O)[C@@H]2CNCCN2C(=O)[C@H](Cc2ccncc2)NC1=O [SEQ ID NO. 140] (cyclo([4Pal][Pip(4-aza)]W[dHyp](Carboxymethyl)N[Phe(4-COOH)][Trp(7-CN)][αMeS][Phe(4-CONH2)][Phe(4-CONH2)][Sar][Trp(βS-Me,7-OMe)][X1][Ahp(2)]))	0.06 nM	> 1000 nM	
CCCC[C@@H]1NC(=O)[C@@H]2CC[C@@H](C2)NC(=O)[C@H]([C@@H](C)c2c[nH]c3c(OC)cccc23)NC(=O)CN(C)C(=O)[C@H](Cc2ccc(O)cc2)NC(=O)[C@H](Cc2ccc(C(=O)O)cc2)NC(=O)[C@](C)(CO)NC(=O)[C@H](Cc2c[nH]c3c(Cl)cccc23)NC(=O)[C@H](Cc2ccncc2)NC(=O)[C@H](CC(N)=O)NC(=O)CN(C)C(=O)[C@H](Cc2c[nH]c3ccccc23)NC(=O)[C@@H]2CNCCN2C(=O)[C@H](Cc2ccncc2)NC1=O [SEQ ID NO. 141] (cyclo([4Pal][Trp(7-Cl)][αMeS][Phe(4-COOH)]Y[Sar][Trp(βS-Me,7-OMe)][X1][Nle][4Pal][Pip(4-aza)]W[Sar]N))	0.17 nM	> 1000 nM	
CCCC[C@@H]1NC(=O)CSC[C@@H](C(N)=O)NC(=O)[C@H]([C@@H](C)c2c[nH]c3c(OC)cccc23)NC(=O)CN(C)C(=O)[C@H](Cc2ccc(O)cc2)NC(=O)[C@H](Cc2ccc(C(=O)O)cc2)NC(=O)[C@](C)(CO)NC(=O)[C@H](Cc2c[nH]c3c(Cl)cccc23)NC(=O)[C@H](Cc2ccncc2)NC(=O)[C@H](CC(N)=O)NC(=O)[C@H](CCC(=O)O)N(C)C(=O)[C@H](Cc2c[nH]c3ncccc23)NC(=O)[C@H](CO)NC(=O)[C@H]([C@H](C)c2ccncc2)NC1=O [SEQ ID NO. 143] ({CH2CO}-[Nle][X3]S[Trp(7-aza)][NMeE]N[4Pal][Trp(7-Cl)][αMeS][Phe(4-COOH)]Y[Sar][Trp(βS-Me,7-OMe)]C-NH2; thioether N-14)	0.21 nM	> 1000 nM	0.4 nM
CCCC[C@@H]1NC(=O)[C@@H]2CC[C@@H](C2)NC(=O)[C@H]([C@@H](C)c2c[nH]c3c(OC)cccc23)NC(=O)CN(C)C(=O)[C@H](Cc2ccc(O)cc2)NC(=O)[C@H](Cc2ccc(C(N)=O)cc2)NC(=O)[C@](C)(CO)NC(=O)[C@H](Cc2c[nH]c3c(Cl)cccc23)NC(=O)[C@H](Cc2ccncc2)NC(=O)[C@H](CC(N)=O)NC(=O)[C@H]2C[C@H](N)CN2C(=O)[C@H](Cc2c[nH]c3ccccc23)NC(=O)[C@@H]2CC[C@@H](O)CN2C(=O)[C@H](Cc2ccncc2)NC1=O [SEQ ID NO. 144] (cyclo([4Pal][Trp(7-Cl)][αMeS][Phe(4-CONH2)]Y[Sar][Trp(βS-Me,7-OMe)][X1][Nle][4Pal][Pip(5R-OH)]W[dPro(4S-NH2)]N))	0.07 nM	> 1000 nM	
